Reference: ChEMBL document CHEMBL1201862, “PubChem BioAssay data set” (2004)
Where “and” joins values, the source holds several entries; their conditions need not be identical. Equal values may be shown once.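 Dose response: 5 concentrations. Exposure: 48 h. Format: 96-well plates. Endpoint: linear interpolation; highest concentration if not reached. Here, GI50 denotes the concentration required for 50% inhibition of growth.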 Calls of active or inactive are those of the source. No stated cut-off is given here; in the data, active = GI50 up to about 1.1 µM and inactive = higher.

Experiments:
Assay in all cases: growth of human tumour cells (NCI), 48 h
SNB-75 = test system: SNB-75
SF-539 = test system: SF-539
LOX IMVI = test system: LOX IMVI
HL-60 = test system: HL-60
SK-MEL-2 = test system: SK-MEL-2
OVCAR-8 = test system: OVCAR-8
CAKI-1 = test system: CAKI-1
NCI-H226 = test system: NCI-H226
A498 = test system: A498
IGROV-1 = test system: IGROV-1
SW-620 = test system: SW-620
T47D = test system: T47D
TK-10 = test system: TK-10
UACC-62 = test system: UACC-62
MDA-MB-231 = test system: MDA-MB-231
RPMI-8226 = test system: RPMI-8226
MOLT-4 = test system: MOLT-4
OVCAR-3 = test system: OVCAR-3
OVCAR-5 = test system: OVCAR-5
Hs-578T = test system: Hs-578T

Row | SMILES | GI50 (SNB-75) | GI50 (SF-539) | GI50 (LOX IMVI) | GI50 (HL-60) | GI50 (SK-MEL-2) | GI50 (OVCAR-8) | GI50 (CAKI-1) | GI50 (NCI-H226) | GI50 (A498) | GI50 (IGROV-1) | GI50 (SW-620) | GI50 (T47D) | GI50 (TK-10) | GI50 (UACC-62) | GI50 (MDA-MB-231) | GI50 (RPMI-8226) | GI50 (MOLT-4) | GI50 (OVCAR-3) | GI50 (OVCAR-5) | GI50 (Hs-578T)
1 | OC1(c2ccccc2)C2CCN(CC2)C1CN1CCOCC1 (stereo unspecified) | > 100 µM (inactive) | > 100 µM (inactive) | > 100 µM (inactive) | > 100 µM (inactive) | > 100 µM (inactive) | > 100 µM (inactive) | > 100 µM (inactive) | > 100 µM (inactive) | > 100 µM (inactive) | > 100 µM (inactive) | > 100 µM (inactive) | > 100 µM (inactive) | > 100 µM (inactive) | > 100 µM (inactive) | > 100 µM (inactive) | > 100 µM (inactive) | > 100 µM (inactive) | > 100 µM (inactive) | > 100 µM (inactive) | 
2 | COc1ccc(C(O)c2ccc3c(c2)OCO3)cc1 (stereo unspecified) | 1.94 µM (inactive) | > 100 µM (inactive) | > 100 µM (inactive) | > 100 µM (inactive) |  | > 100 µM (inactive) | > 100 µM (inactive) | > 100 µM (inactive) | > 100 µM (inactive) | > 100 µM (inactive) | > 100 µM (inactive) | 99.3 µM (inactive) | > 100 µM (inactive) | > 100 µM (inactive) | > 100 µM (inactive) |  | > 100 µM (inactive) | > 100 µM (inactive) | > 100 µM (inactive) | 
3 | COc1cc(/C=N\c2nc(-c3ccc(NS(=O)(=O)c4ccc(Cl)c(OC)c4)cc3)cs2)ccc1O | 89.5 µM (inactive) | 47.5 µM (inactive) | 35.7 µM (inactive) | 26.1 µM (inactive) | 32.2 µM (inactive) | 50.1 µM (inactive) | > 100 µM (inactive) | > 100 µM (inactive) |  | 43.3 µM (inactive) | 41.1 µM (inactive) | 17.4 µM (inactive) |  | 9.71 µM (inactive) |  | 21 µM (inactive) | 16.4 µM (inactive) | 69.5 µM (inactive) | > 100 µM (inactive) | 62.5 µM (inactive)
4 | COc1ccc(/N=N/C(=O)NC(CC(C)C)C(=O)NC(Cc2ccccc2)C(=O)O)cc1 (stereo unspecified) | 61.4 µM (inactive) | 0.31 µM (active) | 18.2 µM (inactive) | 0.685 µM (active) |  | > 100 µM (inactive) | > 100 µM (inactive) | 23.3 µM (inactive) | > 100 µM (inactive) | 11.5 µM (inactive) | 7.73 µM (inactive) | 1.06 µM (active) | > 100 µM (inactive) | 0.711 µM (active) |  | 2.28 µM (inactive) | 0.706 µM (active) | 16.5 µM (inactive) | 1.88 µM (inactive) | > 100 µM (inactive)
5 | CN1c2ccccc2C(=O)NC12CCN(CC1COc3ccccc3O1)CC2 (stereo unspecified) | > 100 µM (inactive) | 36.4 µM (inactive) | 45.1 µM (inactive) | 25.4 µM (inactive) |  | 60.5 µM (inactive) |  | 19.2 µM (inactive) | 20.3 µM (inactive) | 45.1 µM (inactive) | 77.8 µM (inactive) | 21.2 µM (inactive) | 44.8 µM (inactive) | 29.7 µM (inactive) |  | 30.5 µM (inactive) | 23.1 µM (inactive) |  | 48.6 µM (inactive) | 32.7 µM (inactive)
6 | CC(C)=C1C(=O)C[C@]2(C)C/C=C(\C)CC/C=C(\C)CC[C@@H]12 | 9.66 µM (inactive) | 8.57 µM (inactive) |  |  | 7.85 µM (inactive) | 8.51 µM (inactive) | 7.96 µM (inactive) | 8.69 µM (inactive) | 20.8 µM (inactive) | 9.4 µM (inactive) | 9.31 µM (inactive) | 14.9 µM (inactive) | 9.42 µM (inactive) | 7.74 µM (inactive) | 7.89 µM (inactive) | 11.9 µM (inactive) | 8.61 µM (inactive) | 8.53 µM (inactive) | 12.1 µM (inactive) | 11 µM (inactive)
7 | N#Cc1c(-c2ccccc2)c(/C=N/c2ccc(Cl)cc2)c(=O)n2c1[nH]c1ccccc12 | > 100 µM (inactive) | > 100 µM (inactive) | > 100 µM (inactive) |  | > 100 µM (inactive) | > 100 µM (inactive) | 20.1 µM (inactive) | > 100 µM (inactive) | > 100 µM (inactive) | > 100 µM (inactive) | > 100 µM (inactive) | > 100 µM (inactive) | > 100 µM (inactive) |  | > 100 µM (inactive) | 4.43 µM (inactive) |  | 80.9 µM (inactive) | > 100 µM (inactive) | 
8 | COC1C(OC(C)=O)CC(=O)OC(C)C/C=C/C=C\C(O)C(C)CC(CC=O)C1OC1OC(C)C(OC2CC(C)(O)C(OC(=O)CC(C)C)C(C)O2)C(N(C)C)C1O (stereo unspecified) | > 100 µM (inactive) | > 100 µM (inactive) |  |  | > 100 µM (inactive) | > 100 µM (inactive) | > 100 µM (inactive) | > 100 µM (inactive) | > 100 µM (inactive) and 70.3 µM (inactive) | 32.4 µM (inactive) and 25.6 µM (inactive) | > 100 µM (inactive) | > 100 µM (inactive) | > 100 µM (inactive) | > 100 µM (inactive) | > 100 µM (inactive) | > 100 µM (inactive) and 58.2 µM (inactive) |  | > 100 µM (inactive) and 96.8 µM (inactive) | > 100 µM (inactive) | 
9 | COc1ccc(/N=N/C(=O)NC(Cc2ccccc2)C(=O)O)cc1 (stereo unspecified) | > 100 µM (inactive) | > 100 µM (inactive) | > 100 µM (inactive) | > 100 µM (inactive) | > 100 µM (inactive) | > 100 µM (inactive) | > 100 µM (inactive) | > 100 µM (inactive) | > 100 µM (inactive) | > 100 µM (inactive) | > 100 µM (inactive) | > 100 µM (inactive) | > 100 µM (inactive) | 87.9 µM (inactive) |  | > 100 µM (inactive) | > 100 µM (inactive) | > 100 µM (inactive) | > 100 µM (inactive) | > 100 µM (inactive)
10 | CC(C)(NC(=O)OCc1ccccc1)C(=O)OC(=O)C(C)(C)NC(=O)OCc1ccccc1 | > 100 µM (inactive) | > 100 µM (inactive) | > 100 µM (inactive) |  | > 100 µM (inactive) | > 100 µM (inactive) | > 100 µM (inactive) | > 100 µM (inactive) | > 100 µM (inactive) | > 100 µM (inactive) | > 100 µM (inactive) | > 100 µM (inactive) |  | 18.3 µM (inactive) | > 100 µM (inactive) | > 100 µM (inactive) | > 100 µM (inactive) | > 100 µM (inactive) | > 100 µM (inactive) | > 100 µM (inactive)
11 | O=C1c2ccccc2C(=O)N1C(=S)c1ccccc1 | > 100 µM (inactive) | > 100 µM (inactive) | > 100 µM (inactive) | > 100 µM (inactive) | > 100 µM (inactive) | > 100 µM (inactive) | > 100 µM (inactive) | > 100 µM (inactive) |  | > 100 µM (inactive) | > 100 µM (inactive) | > 100 µM (inactive) | > 100 µM (inactive) | > 100 µM (inactive) | > 100 µM (inactive) | > 100 µM (inactive) | > 100 µM (inactive) | > 100 µM (inactive) | > 100 µM (inactive) | > 100 µM (inactive)
12 | CN(N=O)C(=O)Nc1c[nH]c(=O)[nH]c1=O | > 100 µM (inactive) | > 100 µM (inactive) | > 100 µM (inactive) | > 100 µM (inactive) | > 100 µM (inactive) | > 100 µM (inactive) | > 100 µM (inactive) | > 100 µM (inactive) | > 100 µM (inactive) | > 100 µM (inactive) | > 100 µM (inactive) | > 100 µM (inactive) | > 100 µM (inactive) | > 100 µM (inactive) | > 100 µM (inactive) |  | > 100 µM (inactive) | > 100 µM (inactive) | > 100 µM (inactive) | 
13 | CC(=O)OCc1cc(OC(C)=O)c2cc3c(OC(C)=O)cccc3c(OC(C)=O)c2c1 | 22.3 µM (inactive) |  |  | 9.51 µM (inactive) |  | 13.3 µM (inactive) |  | 23.1 µM (inactive) | 11.2 µM (inactive) | 14.5 µM (inactive) | 12.2 µM (inactive) | 21.7 µM (inactive) | 12.7 µM (inactive) | 13.3 µM (inactive) | 17.1 µM (inactive) | 11.2 µM (inactive) | 15.2 µM (inactive) | 13.7 µM (inactive) | 18.8 µM (inactive) | 
14 | CN1C(=O)C(CCO)(C(C)(C)C)c2ccccc21 (stereo unspecified) | 68.1 µM (inactive) |  | > 100 µM (inactive) | > 100 µM (inactive) | > 100 µM (inactive) | > 100 µM (inactive) | > 100 µM (inactive) | 97.9 µM (inactive) |  |  | > 100 µM (inactive) | > 100 µM (inactive) |  | > 100 µM (inactive) | > 100 µM (inactive) | > 100 µM (inactive) | > 100 µM (inactive) | > 100 µM (inactive) | > 100 µM (inactive) | > 100 µM (inactive)
15 | CC[C@@H]1CSC(/C=C/C2OC3OC(C)(C)OC3C3OC(C)(C)OC23)=N1 (stereo partly specified) | 15 µM (inactive) | 4.84 µM (inactive) | 6.53 µM (inactive) | 2.34 µM (inactive) | 14.1 µM (inactive) | 4.49 µM (inactive) | 11.1 µM (inactive) | 16.4 µM (inactive) |  | 10.3 µM (inactive) | 3.22 µM (inactive) | 4.25 µM (inactive) | 3.78 µM (inactive) | 13.9 µM (inactive) | 12.4 µM (inactive) | 5.78 µM (inactive) | 4.54 µM (inactive) | 4.97 µM (inactive) | 7.91 µM (inactive) | 17.9 µM (inactive)
